pEC50: −log10 of the molar value. Like-named read-outs stand apart in the source and are kept apart here.
Legend:
[1] = target: human CB1 receptor (hCB1) (Homo sapiens, UniProt P21554); assay: cell-based; type: cell-based; details: for EC50: groups >100 nM-10 μM and >10 μM, cAMP, CHO-K1 hCB1, read-out: EC50 HCB1
Description: (§1) The ability of compounds to act as agonists or inverse agonists at human CB2 and CB1 receptors (hCB2, hCB1, respectively) and at the rat CB2 receptor (rCB2) was determined by measuring changes in intracellular cAMP levels. Chinese Hamster Ovary (CHO-K1) cell lines stably expressing hCB2 (Genebank: X74328) or hCB1 (Genebank: X54937) were purchased from Euroscreen (Gosselies, Belgium). The rat CB2 receptor was expressed from genomic DNA (provided by M. Abood, California Pacific Medical Center) in CHO-K1 cells from expression plasmid vector, pcDNA3.1.
(§2) Cell lines were grown in suspension in EX-CELL 302 CHO Serum-free medium (Sigma, cat #14324C) supplemented with 1% Fetal Bovine Serum, glutamine and non-essential amino-acids under 0.4 mg/mL G418 selection.
(§3) Receptor mediated responses were determined by measuring changes in intracellular cAMP using LANCE cAMP detection kit (cat #AD0264, Perkin Elmer, Wellesley, Mass.) based on time-resolved fluorescence resonance energy transfer (TR-FRET). Changes in cAMP were determined in cells pre-incubated with IBMX (isobutyl methylxanthine) and prestimulated with NKH-477 (a water soluble forskolin derivative, cat #1603, Tocris, Ellisville, Mo.) to increase basal cAMP levels as detailed below.
(§4) On the day of the experiment, cells were spun at low speed for 5 min at room temperature. The supernatant was removed and cells were resuspended in stimulation buffer (Hanks Buffered Salt Solution/5 mM HEPES, containing 0.5 mM IBMX (cat #17018, Sigma) and 0.02% BSA (Perkin-Elmer, cat #CR84-100)). Cell clumps were removed by filtering through cell strainer 40 μm (BD Falcon, Discovery Labware, Bedford, Mass.) and diluted to 2×10^5 cells/mL. Antibody supplied with the LANCE cAMP immunoassay kit was then added according to the manufacturer's instructions. An aliquot of cells was taken for un-induced controls. To the remaining cells was added NKH-477 (a water soluble forskolin derivative, Tocris cat #1603) to a final concentration of 2-8 μM. Cells were then incubated for 30 min at room temperature prior to adding to Proxiplates containing test compounds (final DMSO concentration was less than 0.5%) with a Multidrop bulk dispenser, followed by a sixty minute incubation at room temperature. The response was stopped by addition of the detection mix supplied with the LANCE kit. The reagents were allowed to equilibrate for three hours prior to reading on an Envision multi-mode detector (Perkin-Elmer). TR-FRET was measured using a 330-380 nm excitation filter, a 665 nm emission filter, dichroic mirror 380 nm and Z=1 mm. Cyclic AMP concentrations in each well were back-calculated from a cAMP standard curve run concurrently during each assay. Each plate contained 16 wells of forskolin stimulated cells and 16 wells of forskolin plus CP55,940-treated cells. Cells were treated with 1 μM CP55,940 (Tocris cat. #0949). Concentrations of cAMP were expressed as a percent of the difference of these two groups of wells. Concentration-response data including EC50 (the concentration of compound producing 50% of the maximal response) and intrinsic activity (the percent maximal activation compared to full activation by CP55,940) were determined using a four-parameter non-linear regression algorithm (Xlfit equation 251, IDBS).

rat CB2 receptor (rCB2) = target: T1, rat CB2 receptor (rCB2) (Rattus norvegicus, UniProt Q9QZN9); assay: cell-based; type: cell-based; details: for +/− RCB2: agonist or inverse agonist at rCB2; for EC50: groups >100 nM-10 μM and >10 μM, cAMP, CHO-K1 rCB2, read-out: EC50 RCB2
T1 sequence (Q9QZN9 1-360): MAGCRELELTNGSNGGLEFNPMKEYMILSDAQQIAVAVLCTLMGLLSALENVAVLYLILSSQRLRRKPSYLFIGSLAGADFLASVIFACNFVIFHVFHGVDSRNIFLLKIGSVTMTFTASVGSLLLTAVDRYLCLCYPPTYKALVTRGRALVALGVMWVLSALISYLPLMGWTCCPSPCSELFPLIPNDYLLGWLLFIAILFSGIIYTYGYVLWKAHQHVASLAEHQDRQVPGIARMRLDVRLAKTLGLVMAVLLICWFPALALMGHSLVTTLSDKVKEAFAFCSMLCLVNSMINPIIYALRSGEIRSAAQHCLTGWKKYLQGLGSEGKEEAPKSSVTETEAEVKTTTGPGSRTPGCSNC
Description: as §1, §2, §3, §4

Sequence of human CB1 receptor (hCB1) (P21554 whole entry): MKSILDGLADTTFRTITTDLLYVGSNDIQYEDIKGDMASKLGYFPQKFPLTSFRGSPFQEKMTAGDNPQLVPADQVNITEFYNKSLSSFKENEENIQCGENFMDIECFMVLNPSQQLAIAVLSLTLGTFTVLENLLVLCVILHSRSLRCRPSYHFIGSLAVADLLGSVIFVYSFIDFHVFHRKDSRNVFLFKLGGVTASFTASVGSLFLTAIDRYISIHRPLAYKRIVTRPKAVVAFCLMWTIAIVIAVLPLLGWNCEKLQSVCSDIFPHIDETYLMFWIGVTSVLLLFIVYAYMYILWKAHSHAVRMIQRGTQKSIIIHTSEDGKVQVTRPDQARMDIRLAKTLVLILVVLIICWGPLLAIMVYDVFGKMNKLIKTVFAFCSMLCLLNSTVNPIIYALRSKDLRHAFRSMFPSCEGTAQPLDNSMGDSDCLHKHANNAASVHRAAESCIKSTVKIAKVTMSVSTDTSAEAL

Row | SMILES | pEC50 [1] | pEC50 (rat CB2 receptor (rCB2)) | +/− RCB2 (rat CB2 receptor (rCB2)) | EC50 [1] [nM] | EC50 (rat CB2 receptor (rCB2)) [nM]
1 | CNC(=O)[C@@H](NC(=O)c1nc(-c2ccc(F)cc2)n2c1CNCC2)C(C)(C)C [Compound 6, (S)-N-(3,3-dimethyl-1-(methylamino)-1-oxobutan-2-yl)-3-(4-fluorophenyl)-5,6,7,8-tetrahydroimidazo[1,5-a]pyrazine-1-carboxamide] | < 5.00 | < 5.00 |  |  | 
2 | CNC(=O)[C@@H](NC(=O)c1nc(-c2ccc(F)c(C)c2)n2c1CNCC2)C(C)(C)C [Compound 7, (S)-N-(3,3-dimethyl-1-(methylamino)-1-oxobutan-2-yl)-3-(4-fluoro-3-methylphenyl)-5,6,7,8-tetrahydroimidazo[1,5-a]pyrazine-1-carboxamide] | < 5.00 |  | − |  | 
3 | CNC(=O)[C@@H](NC(=O)c1nc(-c2cccc(C)c2)n2c1CNCC2)C(C)(C)C [Compound 8, (S)-N-(3,3-dimethyl-1-(methylamino)-1-oxobutan-2-yl)-3-m-tolyl-5,6,7,8-tetrahydroimidazo[1,5-a]pyrazine-1-carboxamide] | < 5.00 |  | − |  | 
4 | CNC(=O)[C@@H](NC(=O)c1nc(-c2ccc(Cl)cc2)n2c1CNCC2)C(C)(C)C [Compound 9, (S)-3-(4-chlorophenyl)-N-(3,3-dimethyl-1-(methylamino)-1-oxobutan-2-yl)-5,6,7,8-tetrahydroimidazo[1,5-a]pyrazine-1-carboxamide] | < 5.00 |  | − |  | 
5 | CNC(=O)[C@@H](NC(=O)c1nc(-c2ccccc2Cl)n2c1CNCC2)C(C)(C)C [Compound 10, (S)-3-(2-chlorophenyl)-N-(3,3-dimethyl-1-(methylamino)-1-oxobutan-2-yl)-5,6,7,8-tetrahydroimidazo[1,5-a]pyrazine-1-carboxamide] | < 5.00 |  | + |  | 
6 | CNC(=O)[C@@H](NC(=O)c1nc(-c2ccsc2)n2c1CNCC2)C(C)(C)C [Compound 11, (S)-N-(3,3-dimethyl-1-(methylamino)-1-oxobutan-2-yl)-3-(thiophen-3-yl)-5,6,7,8-tetrahydroimidazo[1,5-a]pyrazine-1-carboxamide] | < 5.00 |  | + |  | 
7 | CNC(=O)[C@@H](NC(=O)c1nc(-c2ccoc2)n2c1CNCC2)C(C)(C)C [Compound 12, (S)-N-(3,3-dimethyl-1-(methylamino)-1-oxobutan-2-yl)-3-(furan-3-yl)-5,6,7,8-tetrahydroimidazo[1,5-a]pyrazine-1-carboxamide] | < 5.00 |  | − |  | 
8 | CNC(=O)[C@@H](NC(=O)c1nc(Cc2ccccc2)n2c1CNCC2)C(C)(C)C [Compound 13, (S)-3-benzyl-N-(3,3-dimethyl-1-(methylamino)-1-oxobutan-2-yl)-5,6,7,8-tetrahydroimidazo[1,5-a]pyrazine-1-carboxamide] | < 5.00 | < 5.00 |  |  | 
9 | CNC(=O)[C@@H](NC(=O)c1nc(-c2cccnc2)n2c1CNCC2)C(C)(C)C [Compound 14, (S)-N-(3,3-dimethyl-1-(methylamino)-1-oxobutan-2-yl)-3-(pyridin-3-yl)-5,6,7,8-tetrahydroimidazo[1,5-a]pyrazine-1-carboxamide] | < 5.00 |  | + |  | 
10 | CNC(=O)[C@@H](NC(=O)c1nc(-c2ccco2)n2c1CNCC2)C(C)(C)C [Compound 15, (S)-N-(3,3-dimethyl-1-(methylamino)-1-oxobutan-2-yl)-3-(furan-2-yl)-5,6,7,8-tetrahydroimidazo[1,5-a]pyrazine-1-carboxamide] | < 5.00 |  | + |  | 
11 | CNC(=O)[C@@H](NC(=O)c1nc(-c2cccs2)n2c1CNCC2)C(C)(C)C [Compound 16, (S)-N-(3,3-dimethyl-1-(methylamino)-1-oxobutan-2-yl)-3-(thiophen-2-yl)-5,6,7,8-tetrahydroimidazo[1,5-a]pyrazine-1-carboxamide] | < 5.00 |  | + |  | 
12 | CNC(=O)[C@@H](NC(=O)c1nc(-c2cnn(C)c2)n2c1CNCC2)C(C)(C)C [Compound 17, (S)-N-(3,3-dimethyl-1-(methylamino)-1-oxobutan-2-yl)-3-(1-methyl-1H-pyrazol-4-yl)-5,6,7,8-tetrahydroimidazo[1,5-a]pyrazine-1-carboxamide] |  |  |  | > 10000 | > 10000
13 | CNC(=O)[C@@H](NC(=O)c1nc(-c2cccc(Cl)c2)n2c1CNCC2)C(C)(C)C [Compound 18, (S)-3-(3-chlorophenyl)-N-(3,3-dimethyl-1-(methylamino)-1-oxobutan-2-yl)-5,6,7,8-tetrahydroimidazo[1,5-a]pyrazine-1-carboxamide] | < 5.00 |  | − |  | 
14 | CNC(=O)[C@@H](NC(=O)c1nc(-c2cncnc2)n2c1CNCC2)C(C)(C)C [Compound 19, (S)-N-(3,3-dimethyl-1-(methylamino)-1-oxobutan-2-yl)-3-(pyrimidin-5-yl)-5,6,7,8-tetrahydroimidazo[1,5-a]pyrazine-1-carboxamide] | < 5.00 | < 5.00 |  |  | 
15 | CNC(=O)[C@@H](NC(=O)c1nc(-c2cscc2C)n2c1CNCC2)C(C)(C)C [Compound 21, (S)-N-(3,3-dimethyl-1-(methylamino)-1-oxobutan-2-yl)-3-(4-methylthiophen-3-yl)-5,6,7,8-tetrahydroimidazo[1,5-a]pyrazine-1-carboxamide] | < 5.00 |  | + |  | 
16 | CC(C)(C)[C@@H](CO)NC(=O)c1nc(-c2ccccc2)n2c1CNCC2 [Compound 22, (S)-N-(1-hydroxy-3,3-dimethylbutan-2-yl)-3-phenyl-5,6,7,8-tetrahydroimidazo[1,5-a]pyrazine-1-carboxamide] | < 5.00 |  | − |  | 
17 | CC(C)(C)[C@H](CO)NC(=O)c1nc(-c2ccccc2)n2c1CNCC2 [Compound 23, (R)-N-(1-hydroxy-3,3-dimethylbutan-2-yl)-3-phenyl-5,6,7,8-tetrahydroimidazo[1,5-a]pyrazine-1-carboxamide] | < 5.00 |  | + |  | 
18 | CC(C)(C)CNC(=O)c1nc(-c2ccccc2)n2c1CNCC2 [Compound 24, N-neopentyl-3-phenyl-5,6,7,8-tetrahydroimidazo[1,5-a]pyrazine-1-carboxamide] |  |  |  | > 10000 | > 10000
19 | O=C(c1nc(-c2ccccc2)n2c1CNCC2)N1CCOCC1 [Compound 25, morpholino(3-phenyl-5,6,7,8-tetrahydroimidazo[1,5-a]pyrazin-1-yl)methanone] |  |  |  | > 10000 | > 10000
20 | C[C@@H](NC(=O)c1nc(-c2ccccc2)n2c1CNCC2)C(C)(C)C [Compound 26, (R)-N-(3,3-dimethylbutan-2-yl)-3-phenyl-5,6,7,8-tetrahydroimidazo[1,5-a]pyrazine-1-carboxamide] | < 5.00 | < 5.00 |  |  | 
21 | C[C@H](NC(=O)c1nc(-c2ccccc2)n2c1CNCC2)C(C)(C)C [Compound 27, (s)-N-(3,3-dimethylbutan-2-yl)-3-phenyl-5,6,7,8-tetrahydroimidazo[1,5-a]pyrazine-1-carboxamide] | < 5.00 | < 5.00 |  |  | 
22 | CNC(=O)[C@H](C)NC(=O)c1nc(-c2ccccc2)n2c1CNCC2 [Compound 28, (S)-N-(1-(methylamino)-1-oxopropan-2-yl)-3-phenyl-5,6,7,8-tetrahydroimidazo[1,5-a]pyrazine-1-carboxamide] |  |  |  | > 10000 | > 10000

Source: patent publication US7517874B2 (priority 2007, dated 2009)
